Measurements reported in ChEMBL document CHEMBL4507258 (2021).

What was measured:
[1] = target: Mitogen-activated protein kinase 3 (Homo sapiens) (UniProt P27361); settings: Compound concentration 1000.0 nM
[2] = target: Serine/threonine-protein kinase Chk1 (Homo sapiens) (UniProt O14757); settings: Compound concentration 1000.0 nM
[3] = system: Mast/stem cell growth factor receptor Kit (Homo sapiens), P10721 [D816H]; settings: Compound concentration 1000.0 nM
[4] = target: Death-associated protein kinase 2 (Homo sapiens) (UniProt Q9UIK4); settings: Compound concentration 1000.0 nM
[5] = target: SRSF protein kinase 2 (Homo sapiens) (UniProt P78362); settings: Compound concentration 1000.0 nM
[6] = target: T1, Kappa-type opioid receptor (Homo sapiens, UniProt P41145); settings: Compound concentration 10.0 uM
[7] = target: Fibroblast growth factor receptor 2 (Homo sapiens) (UniProt P21802); settings: Compound concentration 1000.0 nM
[8] = target: Melatonin receptor type 1A (Homo sapiens) (UniProt P48039); test: Melatonin ML1 receptor CEREP ligand profiling; settings: Compound concentration 10.0 uM
[9] = target: Serine/threonine-protein kinase 32B (Homo sapiens) (UniProt Q9NY57); settings: Compound concentration 1000.0 nM
[10] = target: Tyrosine-protein kinase Blk (Homo sapiens) (UniProt P51451); settings: Compound concentration 1000.0 nM
[11] = target: Muscarinic acetylcholine receptor M4 (Homo sapiens) (UniProt P08173); test: Muscarinic M4 receptors (h) CEREP ligand profiling; settings: Compound concentration 10.0 uM
[12] = target: T2, Sigma non-opioid intracellular receptor 1 (Homo sapiens, UniProt Q99720); settings: Compound concentration 10.0 uM
[13] = target: Cyclin-dependent kinase 4 (Homo sapiens) (UniProt P11802); settings: Compound concentration 1000.0 nM
[14] = target: NUAK family SNF1-like kinase 1 (Homo sapiens) (UniProt O60285); settings: Compound concentration 1000.0 nM
[15] = system: Phosphatidylinositol 4,5-bisphosphate 3-kinase catalytic subunit alpha isoform (Homo sapiens), P42336 [I800L]; settings: Compound concentration 1000.0 nM
[16] = system: Epidermal growth factor receptor (Homo sapiens), P00533 [UNDEFINED MUTATION]; settings: Compound concentration 1000.0 nM
[17] = target: Serine/threonine-protein kinase LATS2 (Homo sapiens) (UniProt Q9NRM7); settings: Compound concentration 1000.0 nM
[18] = target: Serine/threonine-protein kinase MRCK alpha (Homo sapiens) (UniProt Q5VT25); settings: Compound concentration 1000.0 nM
[19] = target: 5-hydroxytryptamine receptor 5A (Homo sapiens) (UniProt P47898); settings: Compound concentration 10.0 uM
[20] = target: Protein kinase C eta type (Homo sapiens) (UniProt P24723); settings: Compound concentration 1000.0 nM
[21] = target: 5'-AMP-activated protein kinase catalytic subunit alpha-2 (Homo sapiens) (UniProt P54646); settings: Compound concentration 1000.0 nM
[22] = target: Ephrin type-B receptor 1 (Homo sapiens) (UniProt P54762); settings: Compound concentration 1000.0 nM
[23] = target: Sodium-dependent dopamine transporter (Homo sapiens) (UniProt Q01959); settings: Compound concentration 10.0 uM
[24] = target: Protein kinase C theta type (Homo sapiens) (UniProt Q04759); settings: Compound concentration 1000.0 nM
[25] = target: Ribosomal protein S6 kinase alpha-6 (Homo sapiens) (UniProt Q9UK32); settings: Compound concentration 1000.0 nM
[26] = target: Endothelin-1 receptor (Homo sapiens) (UniProt P25101); settings: Compound concentration 10.0 uM
[27] = target: Bone morphogenetic protein receptor type-1A (Homo sapiens) (UniProt P36894); settings: Compound concentration 1000.0 nM
[28] = target: T3, 5-hydroxytryptamine receptor 3A (Homo sapiens) (UniProt P46098); test: 5-Hydroxytryptamine3 CEREP ligand profiling; settings: Compound concentration 10.0 uM
T3 sequence (whole entry): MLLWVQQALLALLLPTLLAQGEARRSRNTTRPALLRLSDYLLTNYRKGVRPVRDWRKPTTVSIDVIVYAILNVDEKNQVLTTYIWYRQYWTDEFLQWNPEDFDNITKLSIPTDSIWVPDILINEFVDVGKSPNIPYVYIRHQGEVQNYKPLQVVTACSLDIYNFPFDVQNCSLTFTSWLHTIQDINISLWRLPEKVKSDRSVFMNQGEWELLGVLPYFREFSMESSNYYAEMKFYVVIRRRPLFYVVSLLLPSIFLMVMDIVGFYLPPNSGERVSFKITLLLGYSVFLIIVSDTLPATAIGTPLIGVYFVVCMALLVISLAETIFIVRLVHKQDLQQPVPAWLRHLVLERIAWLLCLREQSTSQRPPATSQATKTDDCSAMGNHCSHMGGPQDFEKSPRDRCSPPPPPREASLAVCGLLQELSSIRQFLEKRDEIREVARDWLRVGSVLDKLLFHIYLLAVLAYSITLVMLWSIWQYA

[29] = system: Epidermal growth factor receptor (Homo sapiens), P00533 [L858R,T790M]; settings: Compound concentration 1000.0 nM
[30] = target: Cyclin-dependent kinase-like 1 (Homo sapiens) (UniProt Q00532); settings: Compound concentration 1000.0 nM
[31] = target: B2 bradykinin receptor (Homo sapiens) (UniProt P30411); test: Bradykinin B2 receptor (h) CEREP ligand profiling; settings: Compound concentration 10.0 uM
[32] = target: Adenosine receptor A1 (Homo sapiens) (UniProt P30542); test: Adenosine A1 receptor (h) CEREP ligand profiling; settings: Compound concentration 10.0 uM
[33] = target: T1, Kappa-type opioid receptor; test: kappa-Opioid receptor (h) CEREP ligand profiling; settings: Compound concentration 10.0 uM
[34] = system: Epidermal growth factor receptor (Homo sapiens), P00533 [UNDEFINED MUTATION]; settings: Compound concentration 1000.0 nM; remark: listed apart in the source
[35] = target: Eukaryotic translation initiation factor 2-alpha kinase 1 (Homo sapiens) (UniProt Q9BQI3); settings: Compound concentration 1000.0 nM
[36] = target: Alpha-2C adrenergic receptor (Homo sapiens) (UniProt P18825); settings: Compound concentration 10.0 uM
[37] = target: Sodium-dependent noradrenaline transporter (Homo sapiens) (UniProt P23975); settings: Compound concentration 10.0 uM
Mu-type opioid receptor = Mu-type opioid receptor (Homo sapiens, UniProt P35372); test: GPCRScan assay: inhibition of MOR; design: radioligand conc. used [nm] 1.0 – 2.0, parental cells stable HEK
[38] = target: 5-hydroxytryptamine receptor 6 (Homo sapiens) (UniProt P50406); settings: Compound concentration 10.0 uM
[39] = target: T2, Sigma non-opioid intracellular receptor 1; test: GPCRScan assay: inhibition of Sigma 1; design: radioligand conc. used [nm] 4.0 – 5.0, parental cells HEKT

T2 sequence (Q99720 whole entry): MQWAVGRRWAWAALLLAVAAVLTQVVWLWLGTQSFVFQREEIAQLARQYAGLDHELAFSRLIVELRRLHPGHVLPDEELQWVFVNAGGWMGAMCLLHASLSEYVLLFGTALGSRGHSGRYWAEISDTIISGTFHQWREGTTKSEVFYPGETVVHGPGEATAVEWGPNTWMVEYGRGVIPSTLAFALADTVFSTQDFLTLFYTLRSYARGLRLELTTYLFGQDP
T1 sequence (P41145 whole entry): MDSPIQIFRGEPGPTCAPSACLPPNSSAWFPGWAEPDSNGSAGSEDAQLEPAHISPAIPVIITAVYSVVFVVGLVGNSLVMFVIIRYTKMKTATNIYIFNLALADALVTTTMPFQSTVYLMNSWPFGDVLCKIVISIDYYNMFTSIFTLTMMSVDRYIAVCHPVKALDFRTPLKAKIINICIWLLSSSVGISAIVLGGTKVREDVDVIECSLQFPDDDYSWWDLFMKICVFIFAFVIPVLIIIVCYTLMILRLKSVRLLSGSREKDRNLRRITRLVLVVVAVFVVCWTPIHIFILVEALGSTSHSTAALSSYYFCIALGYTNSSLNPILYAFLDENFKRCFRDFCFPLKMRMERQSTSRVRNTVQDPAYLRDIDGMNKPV
Sequence of Serine/threonine-protein kinase Chk1 (Homo sapiens) (O14757 whole entry): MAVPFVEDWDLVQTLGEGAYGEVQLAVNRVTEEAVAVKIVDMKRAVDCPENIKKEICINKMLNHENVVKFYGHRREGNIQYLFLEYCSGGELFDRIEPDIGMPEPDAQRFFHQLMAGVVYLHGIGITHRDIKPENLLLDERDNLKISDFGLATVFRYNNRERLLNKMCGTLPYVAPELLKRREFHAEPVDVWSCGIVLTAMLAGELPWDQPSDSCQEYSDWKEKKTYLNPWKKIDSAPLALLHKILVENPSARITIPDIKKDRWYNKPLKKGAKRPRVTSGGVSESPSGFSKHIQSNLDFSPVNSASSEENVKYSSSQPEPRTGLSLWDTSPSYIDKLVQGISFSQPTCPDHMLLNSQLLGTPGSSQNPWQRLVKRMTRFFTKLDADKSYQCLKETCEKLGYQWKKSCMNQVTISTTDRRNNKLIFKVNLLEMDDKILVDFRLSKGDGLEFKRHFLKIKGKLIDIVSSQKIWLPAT
Sequence of Serine/threonine-protein kinase LATS2 (Homo sapiens) (Q9NRM7 whole entry): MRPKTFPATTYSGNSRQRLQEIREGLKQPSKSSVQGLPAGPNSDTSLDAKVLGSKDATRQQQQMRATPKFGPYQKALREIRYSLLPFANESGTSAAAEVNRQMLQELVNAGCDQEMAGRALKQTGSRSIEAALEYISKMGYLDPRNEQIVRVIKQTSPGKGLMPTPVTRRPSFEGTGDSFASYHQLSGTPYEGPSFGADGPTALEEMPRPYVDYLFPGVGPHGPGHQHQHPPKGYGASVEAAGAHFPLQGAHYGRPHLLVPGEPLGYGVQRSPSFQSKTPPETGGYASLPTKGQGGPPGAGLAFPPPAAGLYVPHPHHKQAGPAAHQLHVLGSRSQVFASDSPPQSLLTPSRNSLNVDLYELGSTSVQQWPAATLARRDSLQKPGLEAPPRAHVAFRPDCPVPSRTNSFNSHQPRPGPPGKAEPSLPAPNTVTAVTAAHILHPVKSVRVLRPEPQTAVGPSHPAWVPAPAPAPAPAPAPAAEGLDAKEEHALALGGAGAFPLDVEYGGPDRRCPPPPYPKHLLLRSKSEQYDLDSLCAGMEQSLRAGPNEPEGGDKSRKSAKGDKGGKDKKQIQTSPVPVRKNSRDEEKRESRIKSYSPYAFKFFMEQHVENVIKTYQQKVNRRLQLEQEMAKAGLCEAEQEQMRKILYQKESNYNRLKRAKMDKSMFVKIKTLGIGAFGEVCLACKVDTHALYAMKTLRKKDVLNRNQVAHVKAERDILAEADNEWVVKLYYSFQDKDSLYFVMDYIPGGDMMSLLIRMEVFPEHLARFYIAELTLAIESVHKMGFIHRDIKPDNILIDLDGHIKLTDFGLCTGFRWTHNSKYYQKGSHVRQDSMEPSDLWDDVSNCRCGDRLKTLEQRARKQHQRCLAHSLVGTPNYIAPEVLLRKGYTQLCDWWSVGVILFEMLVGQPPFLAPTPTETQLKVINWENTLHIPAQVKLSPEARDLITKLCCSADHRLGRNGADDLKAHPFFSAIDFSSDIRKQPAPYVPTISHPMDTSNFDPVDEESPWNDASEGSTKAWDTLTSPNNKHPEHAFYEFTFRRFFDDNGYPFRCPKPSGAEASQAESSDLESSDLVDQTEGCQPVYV
Sequence of Protein kinase C eta type (Homo sapiens) (P24723 whole entry): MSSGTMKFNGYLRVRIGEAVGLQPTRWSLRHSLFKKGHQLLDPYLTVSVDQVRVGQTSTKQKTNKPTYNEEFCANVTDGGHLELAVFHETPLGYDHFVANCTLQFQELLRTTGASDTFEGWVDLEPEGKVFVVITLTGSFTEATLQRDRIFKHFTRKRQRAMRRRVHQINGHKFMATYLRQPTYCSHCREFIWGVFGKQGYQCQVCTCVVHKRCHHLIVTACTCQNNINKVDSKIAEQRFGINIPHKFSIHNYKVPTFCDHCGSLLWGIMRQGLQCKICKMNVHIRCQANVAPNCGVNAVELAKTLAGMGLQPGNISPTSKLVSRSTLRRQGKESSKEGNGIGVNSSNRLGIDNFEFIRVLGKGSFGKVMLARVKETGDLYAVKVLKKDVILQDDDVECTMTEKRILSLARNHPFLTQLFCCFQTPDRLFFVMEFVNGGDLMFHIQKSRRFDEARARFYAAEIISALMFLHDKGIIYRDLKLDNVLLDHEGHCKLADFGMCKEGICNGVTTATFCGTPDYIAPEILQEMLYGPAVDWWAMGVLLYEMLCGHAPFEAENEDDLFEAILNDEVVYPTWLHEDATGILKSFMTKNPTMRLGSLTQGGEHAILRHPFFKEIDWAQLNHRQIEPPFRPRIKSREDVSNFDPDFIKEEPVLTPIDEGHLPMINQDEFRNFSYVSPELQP
Sequence of 5-hydroxytryptamine receptor 5A (Homo sapiens) (P47898 whole entry): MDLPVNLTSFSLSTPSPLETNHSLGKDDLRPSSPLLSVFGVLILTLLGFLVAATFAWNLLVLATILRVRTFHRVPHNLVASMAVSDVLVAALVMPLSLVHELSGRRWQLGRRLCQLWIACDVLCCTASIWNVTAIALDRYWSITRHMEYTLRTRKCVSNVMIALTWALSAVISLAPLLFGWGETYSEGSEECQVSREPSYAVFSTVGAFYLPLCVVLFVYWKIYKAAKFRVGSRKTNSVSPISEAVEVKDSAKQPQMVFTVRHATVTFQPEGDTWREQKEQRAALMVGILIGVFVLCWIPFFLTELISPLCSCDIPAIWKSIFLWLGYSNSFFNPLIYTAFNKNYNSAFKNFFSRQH
Sequence of SRSF protein kinase 2 (Homo sapiens) (P78362 whole entry, looked up): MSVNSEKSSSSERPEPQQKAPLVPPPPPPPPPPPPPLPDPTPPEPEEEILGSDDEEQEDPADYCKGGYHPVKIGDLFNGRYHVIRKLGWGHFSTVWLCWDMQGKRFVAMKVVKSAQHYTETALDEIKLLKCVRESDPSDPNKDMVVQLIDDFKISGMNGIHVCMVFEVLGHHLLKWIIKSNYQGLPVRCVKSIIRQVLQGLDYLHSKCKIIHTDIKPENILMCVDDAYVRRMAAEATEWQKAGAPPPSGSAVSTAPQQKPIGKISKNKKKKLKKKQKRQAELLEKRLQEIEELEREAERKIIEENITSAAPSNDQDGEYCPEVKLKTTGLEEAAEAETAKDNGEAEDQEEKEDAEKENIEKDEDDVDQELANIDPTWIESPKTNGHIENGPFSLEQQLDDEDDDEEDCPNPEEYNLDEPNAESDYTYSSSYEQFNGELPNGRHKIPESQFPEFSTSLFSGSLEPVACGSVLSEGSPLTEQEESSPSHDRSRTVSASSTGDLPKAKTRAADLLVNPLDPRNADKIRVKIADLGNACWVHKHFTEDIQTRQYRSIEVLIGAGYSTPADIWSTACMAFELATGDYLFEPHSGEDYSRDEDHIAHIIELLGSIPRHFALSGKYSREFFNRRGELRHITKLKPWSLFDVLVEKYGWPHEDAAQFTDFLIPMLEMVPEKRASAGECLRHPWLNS
Sequence of Ephrin type-B receptor 1 (Homo sapiens) (P54762 whole entry): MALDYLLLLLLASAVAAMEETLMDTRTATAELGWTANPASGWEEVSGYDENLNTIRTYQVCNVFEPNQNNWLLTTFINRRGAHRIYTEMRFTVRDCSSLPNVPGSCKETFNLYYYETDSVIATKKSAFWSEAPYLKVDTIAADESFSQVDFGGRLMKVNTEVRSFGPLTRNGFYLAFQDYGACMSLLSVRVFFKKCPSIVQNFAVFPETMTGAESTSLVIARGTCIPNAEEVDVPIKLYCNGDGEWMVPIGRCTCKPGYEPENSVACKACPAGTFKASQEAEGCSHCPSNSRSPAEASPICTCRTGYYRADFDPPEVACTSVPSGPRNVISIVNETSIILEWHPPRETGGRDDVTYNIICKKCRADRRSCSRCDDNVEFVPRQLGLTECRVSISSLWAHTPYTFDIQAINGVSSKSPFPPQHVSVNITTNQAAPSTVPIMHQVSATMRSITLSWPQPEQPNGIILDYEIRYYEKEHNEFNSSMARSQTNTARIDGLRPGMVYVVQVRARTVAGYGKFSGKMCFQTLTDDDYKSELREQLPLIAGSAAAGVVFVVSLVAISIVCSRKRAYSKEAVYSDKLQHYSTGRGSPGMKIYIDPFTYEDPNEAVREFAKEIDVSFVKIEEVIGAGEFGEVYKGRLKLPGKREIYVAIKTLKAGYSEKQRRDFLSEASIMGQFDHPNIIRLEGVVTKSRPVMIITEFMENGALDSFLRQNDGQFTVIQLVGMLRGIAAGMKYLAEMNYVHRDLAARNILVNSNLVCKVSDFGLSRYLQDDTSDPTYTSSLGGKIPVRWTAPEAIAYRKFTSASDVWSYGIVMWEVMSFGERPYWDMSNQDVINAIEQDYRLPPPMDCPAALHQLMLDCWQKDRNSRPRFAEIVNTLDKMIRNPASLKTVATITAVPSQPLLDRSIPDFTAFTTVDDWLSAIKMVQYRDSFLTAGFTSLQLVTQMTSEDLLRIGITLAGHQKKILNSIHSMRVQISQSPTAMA

CCCCN(CCCC)C(=O)CN1C[C@H](c2cc(OC)c3c(c2)OCO3)[C@@H](C(=O)O)[C@@H]1CC(C)(C)CCC [ABT-546]
inactive: residual activity [1] 100% | residual activity [2] 100% | residual activity [3] 67.3% | residual activity [4] 100% | residual activity [5] 100% | inhibition [6] -1.47% | residual activity [7] 100% | inhibition [8] 12% | residual activity [9] 81.7% | residual activity [10] 95.8% | inhibition [11] < 10% | inhibition [12] 29.6% | residual activity [13] 70.3% | residual activity [14] 100% | residual activity [15] 52.9% | residual activity [16] 85% | residual activity [17] 100% | residual activity [18] 100% | inhibition [19] -5.07% | residual activity [20] 100% | residual activity [21] 100% | residual activity [22] 100% | inhibition [23] -0.591% | residual activity [24] 100% | residual activity [25] 76.4% | inhibition [26] 98% | residual activity [27] 86.9% | inhibition [28] < 10% | residual activity [29] 60.6% | residual activity [30] 100% | inhibition [31] < 10% | inhibition [32] 23% | inhibition [33] 28% | residual activity [34] 95.6% | residual activity [35] 100%

CCCCN(CCCC)C(=O)CN1C[C@@H](c2cc(OC)c3c(c2)OCO3)[C@H](C(=O)O)[C@H]1CC(C)(C)CCC [A-545]
active: inhibition [36] 56.1% | inhibition [6] 69.9% | inhibition [12] 93.6% | residual activity [20] 0%
inactive: residual activity [1] 100% | residual activity [2] 100% | residual activity [3] 78.5% | residual activity [4] 99.6% | residual activity [5] 100% | residual activity [7] 83.2% | residual activity [9] 98.4% | residual activity [10] 100% | residual activity [13] 100% | residual activity [14] 82.4% | residual activity [15] 100% | residual activity [16] 100% | residual activity [17] 100% | inhibition [37] 38.5% | residual activity [18] 96.6% | inhibition [19] 43.5% | residual activity [21] 92.6% | residual activity [22] 100% | inhibition [23] 23% | residual activity [24] 78.6% | residual activity [25] 96.6% | residual activity [27] 100% | residual activity [29] 100% | residual activity [30] 74.9% | inhibition [38] 33.5% | residual activity [34] 100% | residual activity [35] 100%
2.78 µM: Ki (Mu-type opioid receptor)
0.298 µM: Ki [39]
